{"source": "patent US20080085871A1", "about": "“Novel polysaccharide pro-drug 5-fluorouracil (5-FU) with enhanced target specificity for colorectal cancer and its preparation methods” (priority 2006, published 2008)", "key": {"COLO-205 cell": {"system": "COLO-205 cell", "assay": "In vitro suppression of COLO-205 cell proliferation", "format": "cell-based", "details": "Homo sapiens, details not enclosed, read-out: IC50 for suppressing COLO-205 cell proliferation", "text": "(§1) However, it should be understood that the 5-FU prodrug exerts its efficacy after it is digested and hydrolyzed at the target sites in the body. Because it is a prodrug, it has no direct effect on in vitro colorectal cancer cell lines."}, "[1]": {"assay": "Distribution of 5-FU in different parts of the GI tract after oral feeding to mice", "format": "in vivo", "parameters": "key to 5-FU (μg/g) Stomach / 5-FU (μg/g) Proximal Small Intestine / 5-FU (μg/g) Distal Small Intestine / 5-FU (μg/g) Ileum and Cecum / 5-FU (μg/g) Colon and Rectum: —: dashed lines represent undetectable levels of 5-FU", "details": "for 5-FU (μg/g) Colon and Rectum / 5-FU (μg/g) Distal Small Intestine / 5-FU (μg/g) Ileum and Cecum / 5-FU (μg/g) Proximal Small Intestine / 5-FU (μg/g) Stomach: oral 22.5 mg/kg, n = 6, x ± s", "text": "Note that the dashed lines represent undetectable levels of 5-FU."}, "HT-29 cell": {"system": "HT-29 cell", "assay": "In vitro suppression of HT-29 cell proliferation", "format": "cell-based", "details": "Homo sapiens, details not enclosed, read-out: IC50 for suppressing HT-29 cell proliferation", "text": "as §1"}, "normal mice": {"system": "normal mice", "assay": "Survival of normal mice after 7-day treatment (toxicological effects)", "format": "in vivo", "details": "for Survival Rate (%) after 7-day Treatment / Survivors/total after 7-day Treatment: normal mice, n = 10", "procedure": "Normal mice are administered with 7.5, 22.5, or 67.5 mg/kg/d of 5-FU and the 5-FU prodrug (as equivalent 5-FU dose). […]"}, "[2]": {"system": "mice with colorectal cancer induced by DMH-DSS", "assay": "Therapeutic effects on mice with colorectal cancer induced by DMH-DSS", "format": "in vivo", "details": "22.5 mg/kg/d equivalent 5-FU, two 7-day treatment periods with 7 days rest (21 days)", "text": "The doses delivered are equivalent with 1 time per day for 7 days as one treatment period, and then another period of treatment after 7 days of rest (i.e., a total of 21 days, two treatment periods with one week of rest in between)."}, "[3]": {"details": "7.5 mg/kg/d (equivalent 5-FU dose)"}, "[4]": {"details": "22.5 mg/kg/d (equivalent 5-FU dose)"}, "[5]": {"details": "67.5 mg/kg/d (equivalent 5-FU dose)"}}, "data": [{"compound": "O=c1[nH]cc(F)c(=O)[nH]1", "note": "[Example 5-FU, 5-fluorouracil]", "values": [{"measurement": "IC50", "setting": "COLO-205 cell", "result": 3.2, "unit": "µM"}, {"measurement": "main site of distribution / detection in the GI tract", "setting": "[1]; fed orally", "result": "mucosa of stomach and proximal part of the small intestine"}, {"measurement": "5-FU (μg/g) Colon and Rectum", "setting": "[1]; 1 hr", "result": "—"}, {"measurement": "5-FU (μg/g) Distal Small Intestine", "setting": "[1]; 1 hr", "result": "0.42 ± 0.21", "unit": "µg/g"}, {"measurement": "5-FU (μg/g) Ileum and Cecum", "setting": "[1]; 1 hr", "result": "—"}, {"measurement": "5-FU (μg/g) Proximal Small Intestine", "setting": "[1]; 1 hr", "result": "1.75 ± 0.24", "unit": "µg/g"}, {"measurement": "5-FU (μg/g) Stomach", "setting": "[1]; 1 hr", "result": "3.04 ± 0.49", "unit": "µg/g"}, {"measurement": "5-FU (μg/g) Colon and Rectum", "setting": "[1]; 2.5 hr", "result": "0.25 ± 0.12", "unit": "µg/g"}, {"measurement": "5-FU (μg/g) Distal Small Intestine", "setting": "[1]; 2.5 hr", "result": "0.43 ± 0.24", "unit": "µg/g"}, {"measurement": "5-FU (μg/g) Ileum and Cecum", "setting": "[1]; 2.5 hr", "result": "0.37 ± 0.12", "unit": "µg/g"}, {"measurement": "5-FU (μg/g) Proximal Small Intestine", "setting": "[1]; 2.5 hr", "result": "0.64 ± 0.42", "unit": "µg/g"}, {"measurement": "5-FU (μg/g) Stomach", "setting": "[1]; 2.5 hr", "result": "1.97 ± 0.31", "unit": "µg/g"}, {"measurement": "5-FU (μg/g) Colon and Rectum", "setting": "[1]; 3.5 hr", "result": "0.41 ± 0.24", "unit": "µg/g"}, {"measurement": "5-FU (μg/g) Distal Small Intestine", "setting": "[1]; 3.5 hr", "result": "0.62 ± 0.12", "unit": "µg/g"}, {"measurement": "5-FU (μg/g) Ileum and Cecum", "setting": "[1]; 3.5 hr", "result": "0.42 ± 0.21", "unit": "µg/g"}, {"measurement": "5-FU (μg/g) Proximal Small Intestine", "setting": "[1]; 3.5 hr", "result": "0.53 ± 0.32", "unit": "µg/g"}, {"measurement": "5-FU (μg/g) Stomach", "setting": "[1]; 3.5 hr", "result": "1.12 ± 0.46", "unit": "µg/g"}, {"measurement": "5-FU (μg/g) Colon and Rectum", "setting": "[1]; 4.5 hr", "result": "0.56 ± 0.06", "unit": "µg/g"}, {"measurement": "5-FU (μg/g) Distal Small Intestine", "setting": "[1]; 4.5 hr", "result": "0.35 ± 0.21", "unit": "µg/g"}, {"measurement": "5-FU (μg/g) Ileum and Cecum", "setting": "[1]; 4.5 hr", "result": "0.37 ± 0.12", "unit": "µg/g"}, {"measurement": "5-FU (μg/g) Proximal Small Intestine", "setting": "[1]; 4.5 hr", "result": "0.42 ± 0.91", "unit": "µg/g"}, {"measurement": "5-FU (μg/g) Stomach", "setting": "[1]; 4.5 hr", "result": "0.97 ± 0.23", "unit": "µg/g"}, {"measurement": "5-FU (μg/g) Colon and Rectum", "setting": "[1]; 6 hr", "result": "0.17 ± 0.04", "unit": "µg/g"}, {"measurement": "5-FU (μg/g) Distal Small Intestine", "setting": "[1]; 6 hr", "result": "0.31 ± 0.09", "unit": "µg/g"}, {"measurement": "5-FU (μg/g) Ileum and Cecum", "setting": "[1]; 6 hr", "result": "0.21 ± 0.11", "unit": "µg/g"}, {"measurement": "5-FU (μg/g) Proximal Small Intestine", "setting": "[1]; 6 hr", "result": "0.37 ± 0.05", "unit": "µg/g"}, {"measurement": "5-FU (μg/g) Stomach", "setting": "[1]; 6 hr", "result": "0.63 ± 0.31", "unit": "µg/g"}, {"measurement": "5-FU (μg/g) Colon and Rectum", "setting": "[1]; 9 hr", "result": "0.08 ± 0.05", "unit": "µg/g"}, {"measurement": "5-FU (μg/g) Distal Small Intestine", "setting": "[1]; 9 hr", "result": "0.17 ± 0.06", "unit": "µg/g"}, {"measurement": "5-FU (μg/g) Ileum and Cecum", "setting": "[1]; 9 hr", "result": "0.03 ± 0.01", "unit": "µg/g"}, {"measurement": "5-FU (μg/g) Proximal Small Intestine", "setting": "[1]; 9 hr", "result": "0.17 ± 0.04", "unit": "µg/g"}, {"measurement": "5-FU (μg/g) Stomach", "setting": "[1]; 9 hr", "result": "0.33 ± 0.18", "unit": "µg/g"}, {"measurement": "5-FU (μg/g) Colon and Rectum", "setting": "[1]; 12 hr", "result": "0.05 ± 0.02", "unit": "µg/g"}, {"measurement": "5-FU (μg/g) Distal Small Intestine", "setting": "[1]; 12 hr", "result": "0.07 ± 0.04", "unit": "µg/g"}, {"measurement": "5-FU (μg/g) Ileum and Cecum", "setting": "[1]; 12 hr", "result": "0.04 ± 0.02", "unit": "µg/g"}, {"measurement": "5-FU (μg/g) Proximal Small Intestine", "setting": "[1]; 12 hr", "result": "0.03 ± 0.01", "unit": "µg/g"}, {"measurement": "5-FU (μg/g) Stomach", "setting": "[1]; 12 hr", "result": "0.06 ± 0.03", "unit": "µg/g"}, {"measurement": "5-FU (μg/g) Colon and Rectum", "setting": "[1]; 15 hr", "result": "—"}, {"measurement": "5-FU (μg/g) Distal Small Intestine", "setting": "[1]; 15 hr", "result": "—"}, {"measurement": "5-FU (μg/g) Ileum and Cecum", "setting": "[1]; 15 hr", "result": "—"}, {"measurement": "5-FU (μg/g) Proximal Small Intestine", "setting": "[1]; 15 hr", "result": "—"}, {"measurement": "5-FU (μg/g) Stomach", "setting": "[1]; 15 hr", "result": "—"}, {"measurement": "IC50", "setting": "HT-29 cell", "result": 13, "unit": "µM"}, {"measurement": "Survival Rate (%) after 7-day Treatment", "setting": "normal mice; [3]", "result": 100, "unit": "%"}, {"measurement": "Survivors/total after 7-day Treatment", "setting": "normal mice; [3]", "result": "(10/10)"}, {"measurement": "Survival Rate (%) after 7-day Treatment", "setting": "normal mice; [4]", "result": 70, "unit": "%"}, {"measurement": "Survivors/total after 7-day Treatment", "setting": "normal mice; [4]", "result": "(7/10)"}, {"measurement": "Survival Rate (%) after 7-day Treatment", "setting": "normal mice; [5]", "result": 0, "unit": "%"}, {"measurement": "Survivors/total after 7-day Treatment", "setting": "normal mice; [5]", "result": "(0/10)"}, {"measurement": "toxic effects in the first dose", "setting": "normal mice; normal mice, 7.5, 22.5, or 67.5 mg/kg/d, first dose", "result": "no obvious toxic effects"}, {"measurement": "Survival at the End of the Study", "setting": "[2]; n = 10", "result": "5/10"}, {"measurement": "Survival Rate", "setting": "[2]; n = 10, listed as Generic 5-Fluorouracil (5-FU)", "result": 50, "unit": "%"}, {"measurement": "Survival Rate", "setting": "[2]; n = 10, listed as generic 5-FU", "result": 50, "unit": "%"}, {"measurement": "Tumor Weight Index", "setting": "[2]; x ± s", "result": "447 ± 113.5", "unit": "mg/g"}, {"measurement": "Tumor Weight as Compared to the Saline Control", "setting": "[2]; listed as Generic 5-Fluorouracil (5-FU)", "result": 65, "unit": "%"}, {"measurement": "Tumor Weight as Compared to the Saline Control", "setting": "[2]; listed as generic 5-FU", "result": 65, "unit": "%"}]}]}
